The target in this assay is T1, human PD-1 / PD-L1-Ig binding on Jurkat cell line over-expressing human PD-1 (Jurkat-PD-1) (Homo sapiens, UniProt Q15116).
T1 construct: expressed in transfected cells; host or cells: Jurkat
Briefly: Jurkat-PD-1 Cell Binding High-Content Screening Assay (CBA). Type of assay: cell-based. The settings on record: PE-labeled PD-L1-Ig 20 nM final. Put shortly: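 Binding of fluorescent PD-L1-Ig (phycoerythrin linked via the Ig tag, 20 nM final) to PD-1-overexpressing Jurkat cells was imaged after a 2 h, 37° C compound pretreatment and 1 hour ligand incubation.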

The mark [1] stands for this setting: Jurkat-PD-1 cells, read-out: Jurkat HPD1_PDL1 IC50.
Setting [2] is: Jurkat HPD1_PDL1 IC50, Jurkat-PD-1 cells.

Read-outs that look alike come from different tables or passages of the source. Where a SMILES comes first, the peptide text is derived from it. Bridges are numbered along the chain shown (N, C = ends). [ ]: non-standard residue; d: D form. The star is where a group is joined. ξ: configuration not given here. Phe(4-COOH) = N[C@@H](Cc1ccc(C(=O)O)cc1)C(=O)O; Bip = N[C@@H](Cc1ccc(-c2ccccc2)cc1)C(=O)O; Phe(4-Cl) = N[C@@H](Cc1ccc(Cl)cc1)C(=O)O; Phe(3-Me) = Cc1cccc(C[C@H](N)C(=O)O)c1; Benzoyl(4-F) = O=C(c1ccc(F)cc1)*; 3Pal = N[C@@H](Cc1cccnc1)C(=O)O; 4Pal = N[C@@H](Cc1ccncc1)C(=O)O; 3Thi = N[C@@H](Cc1ccsc1)C(=O)O; Cha = N[C@@H](CC1CCCCC1)C(=O)O; Cit = NC(=O)NCCC[C@H](N)C(=O)O; Ile(3ξ) = CCC(C)[C@H](N)C(=O)O; Carboxymethyl = O=C(O)C*; Orn = NCCC[C@H](N)C(=O)O; Dab = NCC[C@H](N)C(=O)O; Dap = NC[C@H](N)C(=O)O; Propargyl = C#CC*

T1 sequence (Q15116 25-288): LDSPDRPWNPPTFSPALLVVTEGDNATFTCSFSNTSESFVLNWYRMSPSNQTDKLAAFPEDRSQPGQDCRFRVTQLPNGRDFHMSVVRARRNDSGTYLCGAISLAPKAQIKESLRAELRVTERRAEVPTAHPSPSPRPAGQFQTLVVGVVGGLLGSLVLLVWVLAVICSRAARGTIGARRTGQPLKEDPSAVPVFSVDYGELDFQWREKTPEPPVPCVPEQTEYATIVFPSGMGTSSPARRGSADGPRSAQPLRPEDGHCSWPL

As a reminder, the IC50 is the concentration needed to halve the response being measured. As for `C#CCOc1ccc(C[C@@H]2NC(=O)[C@H](Cc3cccc(C)c3)NC(=O)[C@H](CC(=O)O)NC(=O)[C@H](Cc3ccc(OCC(=O)O)cc3)NC(=O)[C@H](CN)NC(=O)CSC[C@@H](C(=O)N[C@@H](CCN)C(N)=O)NC(=O)[C@H](CCC(=O)O)NC(=O)[C@H](C(C)C)NC(=O)[C@H](CC3CCCCC3)NC(=O)[C@H](CCN)NC(=O)[C@@H](CC(C)C)NC(=O)[C@H](CCCN)NC(=O)[C@H](Cc3ccc(OCC(=O)O)cc3)NC(=O)[C@H](Cc3ccc(-c4ccccc4)cc3)NC2=O)cc1` [Compound 1812] ({CH2CO}-[Dap]Y(Carboxymethyl)D[Phe(3-Me)]Y(Propargyl)[Bip]Y(Carboxymethyl)[Orn][dL][Dab][Cha]VEC[Dab]-NH2; thioether N-14), the IC50 under setting [1] is 3.2 nM. On to `COC[C@@H]1NC(=O)[C@H](Cc2c[nH]c3ccccc23)NC(=O)[C@H](CC(=O)O)NC(=O)[C@H](Cc2ccc(OCC(=O)O)cc2)NC(=O)[C@H](CN)NC(=O)CSC[C@@H](C(=O)N[C@@H](C)C(N)=O)NC(=O)[C@H]([C@@H](C)O)NC(=O)[C@H](C(C)C)NC(=O)[C@H](CC2CCCCC2)NC(=O)[C@H](CCN)NC(=O)[C@@H](CC(C)C)NC(=O)[C@H](CCCN)NC(=O)[C@H](CCCNC(N)=O)NC(=O)[C@H](Cc2ccc(-c3ccccc3)cc2)NC1=O` [Compound 1002] ({CH2CO}-[Dap]Y(Carboxymethyl)DWS(Me)[Bip][Cit][Orn][dL][Dab][Cha]VTCA-NH2; thioether N-14), for which the IC50 under setting [1] is 17.2 nM. On to `CC(C)C[C@@H]1NC(=O)[C@H](Cc2c[nH]c3ccccc23)NC(=O)[C@H](CC(=O)O)NC(=O)[C@H](Cc2ccc(O)cc2)NC(=O)[C@H](Cc2ccccc2)NC(=O)CSC[C@@H](C(=O)NCC(N)=O)NC(=O)[C@H](CO)NC(=O)[C@H](C(C)C)NC(=O)[C@H](CC(C)C)NC(=O)[C@H](CCN)NC(=O)[C@@H](CC(C)C)NC(=O)[C@H](CCN)NC(=O)[C@H](C(C)C)NC(=O)[C@H](Cc2ccc(-c3ccccc3)cc2)NC1=O` [Compound 1063] ({CH2CO}-FYDWL[Bip]V[Dab][dL][Dab]LVSCG-NH2; thioether N-14), for which the IC50 under setting [1] is 19.8 nM.

For `CC(C)C[C@@H]1NC(=O)[C@H](CCN)NC(=O)[C@@H](CC(C)C)NC(=O)[C@H](CCCCN)NC(=O)[C@H](C(C)C)NC(=O)[C@H](Cc2ccc(-c3ccccc3)cc2)NC(=O)[C@H](C(C)C)NC(=O)[C@H](Cc2c[nH]c3ccccc23)NC(=O)[C@H](CC(N)=O)NC(=O)[C@H](Cc2ccc(O)cc2)NC(=O)[C@H](CC(N)=O)NC(=O)CSC[C@@H](C(=O)NCC(N)=O)NC(=O)[C@H]([C@@H](C)O)NC(=O)[C@H](C(C)C)NC1=O` [Compound 1085] ({CH2CO}-NYNWV[Bip]VK[dL][Dab]LVTCG-NH2; thioether N-14), under setting [1], the 50% inhibitory concentration (IC50) turned out to be 22.3 nM. Regarding `CCC(C)[C@@H]1NC(=O)[C@H](Cc2ccc(-c3ccccc3)cc2)NC(=O)[C@H](C(C)C)NC(=O)[C@H](Cc2cccc(C)c2)NC(=O)[C@H](CC(=O)O)NC(=O)[C@H](Cc2ccc(C(=O)O)cc2)NC(=O)[C@H](Cc2ccncc2)NC(=O)CSC[C@@H](C(N)=O)NC(=O)[C@H](CO)NC(=O)[C@H](C(C)C)NC(=O)[C@H](CC2CCCCC2)NC(=O)[C@H](CCN)NC(=O)[C@@H](CC(C)C)NC(=O)[C@H](CCCN)NC1=O` (stereo partly drawn) [Compound 2276] ({CH2CO}-[4Pal][Phe(4-COOH)]D[Phe(3-Me)]V[Bip][Ile(3ξ)][Orn][dL][Dab][Cha]VSC-NH2; thioether N-14), the IC50 under setting [1] amounted to 26.6 nM. Consider `Cc1cccc(C[C@@H]2NC(=O)[C@H](CC(=O)O)NC(=O)[C@H](Cc3ccc(OCC(=O)O)cc3)NC(=O)[C@H](CCCNC(=N)N)NC(=O)CSC[C@@H](C(N)=O)NC(=O)[C@H]([C@@H](C)O)NC(=O)[C@H](C(C)C)NC(=O)[C@H](CC3CCCCC3)NC(=O)[C@H](CCN)NC(=O)[C@@H](CC(C)C)NC(=O)[C@H](CCCNC(=O)c3ccc(F)cc3)NC(=O)[C@H](Cc3ccc(OCC(=O)O)cc3)NC(=O)[C@H](Cc3ccc(-c4ccccc4)cc3)NC(=O)[C@H](Cc3ccc(O)cc3)NC2=O)c1` [Compound 2050] ({CH2CO}-RY(Carboxymethyl)D[Phe(3-Me)]Y[Bip]Y(Carboxymethyl)[Orn](Benzoyl(4-F))[dL][Dab][Cha]VTC-NH2; thioether N-14), for which the IC50 under setting [1] is 121 nM. On the same count and under the same terms, to `CC(C)C[C@@H]1NC(=O)[C@H](CCN)NC(=O)[C@@H](CC(C)C)NC(=O)[C@H](CCCN)NC(=O)[C@H](C(C)C)NC(=O)[C@H](Cc2ccc(-c3ccccc3)cc2)NC(=O)[C@H](C(C)C)NC(=O)[C@H](Cc2c[nH]c3ccccc23)NC(=O)[C@H](CC(=O)O)NC(=O)[C@H](Cc2ccc(O)cc2)NC(=O)[C@H](Cc2cccnc2)NC(=O)CSC[C@@H](C(=O)N[C@@H](C)C(N)=O)NC(=O)[C@H]([C@@H](C)O)NC(=O)[C@H](C(C)C)NC1=O` [Compound 1050] ({CH2CO}-[3Pal]YDWV[Bip]V[Orn][dL][Dab]LVTCA-NH2; thioether N-14) belongs 9.9 nM; to `CC(C)C[C@H]1NC(=O)[C@H](CCN)NC(=O)[C@H](C(C)C)NC(=O)[C@H](Cc2ccc(-c3ccccc3)cc2)NC(=O)[C@H](C(C)C)NC(=O)[C@H](Cc2c[nH]c3ccccc23)NC(=O)[C@H](CC(=O)O)NC(=O)[C@H](Cc2ccc(OCC(=O)O)cc2)NC(=O)[C@H](Cc2ccsc2)NC(=O)CSC[C@@H](C(=O)N[C@H](CC(N)=O)C(N)=O)NC(=O)[C@H](CCCCN)NC(=O)[C@H](C(C)C)NC(=O)[C@H](CC2CCCCC2)NC(=O)[C@H](CCN)NC1=O` [Compound 2612] ({CH2CO}-[3Thi]Y(Carboxymethyl)DWV[Bip]V[Dab][dL][Dab][Cha]VKC[dN]-NH2; thioether N-14), 5.9 nM. Take `CC(C)C[C@@H]1NC(=O)[C@H](CCN)NC(=O)[C@@H](CC(C)C)NC(=O)[C@H](CCCN)NC(=O)[C@H](C(C)C)NC(=O)[C@H](Cc2ccc(-c3ccccc3)cc2)NC(=O)[C@H](C(C)C)NC(=O)[C@H](Cc2c[nH]c3ccccc23)NC(=O)[C@H](CC(N)=O)NC(=O)[C@H](Cc2ccc(O)cc2)NC(=O)[C@H](CC(N)=O)NC(=O)CSC[C@@H](C(=O)NCC(N)=O)NC(=O)[C@H]([C@@H](C)O)NC(=O)[C@H](C(C)C)NC1=O` [Compound 1084] ({CH2CO}-NYNWV[Bip]V[Orn][dL][Dab]LVTCG-NH2; thioether N-14): the IC50 under setting [1] was found to be 28.9 nM. With `CC(C)C[C@@H]1NC(=O)[C@H](CCN)NC(=O)[C@@H](CC(C)C)NC(=O)[C@H](CCCCN)NC(=O)[C@H](CCCNC(N)=O)NC(=O)[C@H](Cc2ccc(-c3ccccc3)cc2)NC(=O)[C@H](C(C)C)NC(=O)[C@H](Cc2c[nH]c3ccccc23)NC(=O)[C@H](CC(=O)O)NC(=O)[C@H](Cc2ccc(O)cc2)NC(=O)[C@H](CC(N)=O)NC(=O)CSC[C@@H](C(=O)NCC(N)=O)NC(=O)[C@H](CO)NC(=O)[C@H](C(C)C)NC1=O` [Compound 1113] ({CH2CO}-NYDWV[Bip][Cit]K[dL][Dab]LVSCG-NH2; thioether N-14), the IC50 under setting [1] stood at 15.6 nM.

In turn, `CC[C@H](C)[C@@H]1NC(=O)[C@H](Cc2ccc(-c3ccccc3)cc2)NC(=O)[C@H](C(C)C)NC(=O)[C@H](Cc2cccc(Cl)c2)NC(=O)[C@H](CC(=O)O)NC(=O)[C@H](Cc2ccc(OCC(=O)O)cc2)NC(=O)[C@H](Cc2ccc(OCC(=O)O)cc2)NC(=O)CSC[C@@H](C(=O)N[C@@H](C)C(N)=O)NC(=O)[C@H]([C@@H](C)O)NC(=O)[C@H](C(C)C)NC(=O)[C@H](CC2CCCCC2)NC(=O)[C@H](CCN)NC(=O)[C@@H](CC(C)C)NC(=O)[C@H](CCCN)NC1=O` [Compound 1568] showed an IC50 under setting [2] of 24.5 nM. Regarding `CC(C)C[C@H]1NC(=O)[C@H](CCCN)NC(=O)[C@H](CCCNC(N)=O)NC(=O)[C@H](Cc2ccc(-c3ccccc3)cc2)NC(=O)[C@H](C(C)C)NC(=O)[C@H](Cc2c[nH]c3ccccc23)NC(=O)[C@H](CC(=O)O)NC(=O)[C@H](Cc2ccc(C(=O)O)cc2)NC(=O)[C@H](Cc2ccc(OCC(=O)O)cc2)NC(=O)CSC[C@@H](C(=O)N[C@@H](C)C(N)=O)NC(=O)[C@H]([C@@H](C)O)NC(=O)[C@H](C(C)C)NC(=O)[C@H](CC2CCCCC2)NC(=O)[C@H](Cc2c[nH]cn2)NC1=O` [Compound 1602], under setting [2], the IC50 was 23.8 nM. For `CC(C)C[C@H]1NC(=O)[C@H](CCCN)NC(=O)[C@H](CCCNC(N)=O)NC(=O)[C@H](Cc2ccc(-c3ccccc3)cc2)NC(=O)[C@H](C(C)C)NC(=O)[C@H](Cc2c[nH]c3ccccc23)NC(=O)[C@H](CC(=O)O)NC(=O)[C@H](Cc2ccc(Cl)cc2)NC(=O)[C@H](CN)NC(=O)CSC[C@@H](C(=O)N[C@@H](C)C(N)=O)NC(=O)[C@H]([C@@H](C)O)NC(=O)[C@H](C(C)C)NC(=O)[C@H](CC2CCCCC2)NC(=O)[C@H](CCN)NC1=O` [Compound 2102] ({CH2CO}-[Dap][Phe(4-Cl)]DWV[Bip][Cit][Orn][dL][Dab][Cha]VTCA-NH2; thioether N-14), under setting [1], the IC50 amounted to 45.6 nM. In the case of `Cc1cccc(C[C@@H]2NC(=O)[C@H](CC(=O)O)NC(=O)[C@H](Cc3ccc(OCC(=O)O)cc3)NC(=O)[C@H](CCN)NC(=O)CSC[C@@H](C(=O)N[C@@H](CCN)C(N)=O)NC(=O)[C@H](Cc3cnc[nH]3)NC(=O)[C@H](C(C)C)NC(=O)[C@H](CC3CCCCC3)NC(=O)[C@H](CCN)NC(=O)[C@@H](CC(C)C)NC(=O)[C@H](CCCN)NC(=O)[C@H](Cc3ccc(OCC(=O)O)cc3)NC(=O)[C@H](Cc3ccc(-c4ccccc4)cc3)NC(=O)[C@H](C(C)C)NC2=O)c1` [Compound 2644] ({CH2CO}-[Dab]Y(Carboxymethyl)D[Phe(3-Me)]V[Bip]Y(Carboxymethyl)[Orn][dL][Dab][Cha]VHC[Dab]-NH2; thioether N-14), the IC50 under setting [1] was determined as 13.6 nM.

(Values after patent US20250163104A1, “MACROCYCLIC IMMUNOMODULATORS” (priority 2021, published 2025).)
